Experiment [1] concerns Lolium multiflorum. The experiment can be described thus: Induction of ammonia accumulation in glufosinate-susceptible Lolium multiflorum C1 (Italian ryegrass) seedlings at 3-leaf stage assessed as ammonia level per gram of leaves fresh weight at 0.4 kg Ai/ha measured 72 hr after compound treatment under greenhouse conditions (reference value: 11.04 +/- 0.89 ug/g of leaves fresh weight). Format: functional.

The test system of experiment [2] is Lolium multiflorum. The experiment can be described thus: Herbicidal activity against glufosinate-susceptible Lolium multiflorum C1 (Italian ryegrass) assessed as reduction above-ground dry weight measured after 15 days post compound treatment under greenhouse conditions. Type of experiment: functional.
Experiment [3] concerns Lolium multiflorum. The experiment can be described thus: Induction of ammonia accumulation in glufosinate-susceptible Lolium multiflorum C2 (Italian ryegrass) seedlings at 3-leaf stage assessed as ammonia level per gram of leaves fresh weight at 0.4 kg Ai/ha measured 72 hr after compound treatment under greenhouse conditions (reference value: 14.79 +/- 4.09 ug/g of leaves fresh weight). Format: functional.

Experiment [4] has as its system Lolium multiflorum. The experiment is described as follows: Resistance index, ratio of GR50 for glufosinate-resistant Lolium multiflorum MG (Italian ryegrass) expressing one amino acid substitution in plastidic GS2 gene aspartic acid for asparagine at position 171 to GR50 for glufosinate-susceptible Lolium multiflorum (Italian ryegrass)C2. Type of experiment: functional.

Experiment [5] deals with Lolium multiflorum. The experiment can be described thus: Induction of ammonia accumulation in glufosinate-resistant Lolium multiflorum MG (Italian ryegrass) seedlings at 3-leaf stage assessed as ammonia level per gram of leaves fresh weight at 0.4 kg Ai/ha measured 96 hr after compound treatment under greenhouse conditions (reference value: 12.41 +/- 0.97 ug/g of leaves fresh weight). Type of experiment: functional.

The test system of experiment [6] is Lolium multiflorum. The experiment can be described thus: Induction of ammonia accumulation in glufosinate-susceptible Lolium multiflorum C1 (Italian ryegrass) seedlings at 3-leaf stage assessed as ammonia level per gram of leaves fresh weight at 0.4 kg Ai/ha measured 96 hr after compound treatment under greenhouse conditions (reference value: 11.04 +/- 0.89 ug/g of leaves fresh weight). Format: functional.

Experiment [7] concerns Lolium multiflorum. The experiment is described as follows: Induction of ammonia accumulation in glufosinate-susceptible Lolium multiflorum C2 (Italian ryegrass) seedlings at 3-leaf stage assessed as ammonia level per gram of leaves fresh weight at 0.4 kg Ai/ha measured 24 hr after compound treatment under greenhouse conditions (reference value: 14.79 +/- 4.09 ug/g of leaves fresh weight). Type of experiment: functional.

Experiment [8] addresses T1, Glutamine synthetase (Lolium perenne, UniProt C5IW59).
T1 sequence (C5IW59 whole entry): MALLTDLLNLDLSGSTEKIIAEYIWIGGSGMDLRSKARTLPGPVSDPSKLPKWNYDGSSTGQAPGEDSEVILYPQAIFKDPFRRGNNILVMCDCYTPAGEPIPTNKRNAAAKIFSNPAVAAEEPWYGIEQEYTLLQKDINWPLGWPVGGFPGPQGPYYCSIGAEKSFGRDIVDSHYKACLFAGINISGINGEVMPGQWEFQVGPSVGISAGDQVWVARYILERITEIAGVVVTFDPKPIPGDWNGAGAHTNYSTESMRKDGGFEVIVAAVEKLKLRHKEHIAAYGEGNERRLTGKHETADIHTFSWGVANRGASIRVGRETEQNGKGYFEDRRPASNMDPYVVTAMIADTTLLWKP
The experiment is described as follows: Inhibition of glutamine synthetase in glufosinate-susceptible Lolium multiflorum C1 (Italian ryegrass) seedlings. The conditions noted are these: read-out: I50.

In experiment [9] the test system is Lolium multiflorum. The experiment is described as follows: Herbicidal activity against glufosinate-susceptible Lolium multiflorum C2 (Italian ryegrass) assessed as reduction above-ground dry weight measured after 15 days post compound treatment under greenhouse conditions. Type of experiment: functional.
The subject of experiment [10] is Lolium multiflorum. The experiment is described as follows: Induction of ammonia accumulation in glufosinate-resistant Lolium multiflorum MG (Italian ryegrass) seedlings at 3-leaf stage assessed as ammonia level per gram of leaves fresh weight at 0.4 kg Ai/ha measured 48 hr after compound treatment under greenhouse conditions (reference value: 12.41 +/- 0.97 ug/g of leaves fresh weight). Type of experiment: functional.

For experiment [11], the system named is Lolium multiflorum. The experiment is described as follows: Induction of ammonia accumulation in glufosinate-susceptible Lolium multiflorum C1 (Italian ryegrass) seedlings at 3-leaf stage assessed as ammonia level per gram of leaves fresh weight at 0.4 kg Ai/ha measured 48 hr after compound treatment under greenhouse conditions (reference value: 11.04 +/- 0.89 ug/g of leaves fresh weight). Type of experiment: functional.

Experiment [12] concerns Lolium multiflorum. The experiment is described as follows: Resistance index, ratio of GR50 for glufosinate-resistant Lolium multiflorum MG (Italian ryegrass) expressing one amino acid substitution in plastidic GS2 gene aspartic acid for asparagine at position 171 to GR50 for glufosinate-susceptible Lolium multiflorum (Italian ryegrass)C1. Format: functional.
Experiment [13] relates to Lolium multiflorum. The experiment is described as follows: Induction of ammonia accumulation in glufosinate-susceptible Lolium multiflorum C2 (Italian ryegrass) seedlings at 3-leaf stage assessed as ammonia level per gram of leaves fresh weight at 0.4 kg Ai/ha measured 96 hr after compound treatment under greenhouse conditions (reference value: 14.79 +/- 4.09 ug/g of leaves fresh weight). Format: functional.

For experiment [14], the system named is Lolium multiflorum. The experiment is described as follows: Induction of ammonia accumulation in glufosinate-susceptible Lolium multiflorum C2 (Italian ryegrass) seedlings at 3-leaf stage assessed as ammonia level per gram of leaves fresh weight at 0.4 kg Ai/ha measured 48 hr after compound treatment under greenhouse conditions (reference value: 14.79 +/- 4.09 ug/g of leaves fresh weight). Type of experiment: functional.

Experiment [15] addresses T1, Glutamine synthetase. The experiment is described as follows: Inhibition of glutamine synthetase in glufosinate-susceptible Lolium multiflorum C2 (Italian ryegrass) seedlings. The note with it: read-out: I50.
Experiment [16] concerns Lolium multiflorum. The experiment is described as follows: Herbicidal activity against glufosinate-resistant Lolium multiflorum MG (Italian ryegrass) expressing one amino acid substitution in plastidic GS2 gene aspartic acid for asparagine at position 171 assessed as reduction above-ground dry weight measured after 15 days post compound treatment under greenhouse conditions. Type of experiment: functional.

Experiment [17] relates to Lolium multiflorum. The experiment is described as follows: Induction of ammonia accumulation in glufosinate-resistant Lolium multiflorum MG (Italian ryegrass) seedlings at 3-leaf stage assessed as ammonia level per gram of leaves fresh weight at 0.4 kg Ai/ha measured 24 hr after compound treatment under greenhouse conditions (reference value: 12.41 +/- 0.97 ug/g of leaves fresh weight). Type of experiment: functional.

Experiment [18] relates to Lolium multiflorum. The experiment can be described thus: Induction of ammonia accumulation in glufosinate-susceptible Lolium multiflorum (Italian ryegrass) seedlings at three-leaf stage assessed as ammonia level per gram of leaves fresh weight at 0.4 kg Ai/ha measured 24 hr after compound treatment under greenhouse conditions (reference value: 11.04 +/- 0.89 ug/g of leaves fresh weight). Type of experiment: functional, C1.

For experiment [19], the system named is Lolium multiflorum. The experiment is described as follows: Induction of ammonia accumulation in glufosinate-resistant Lolium multiflorum MG (Italian ryegrass) seedlings at 3-leaf stage assessed as ammonia level per gram of leaves fresh weight at 0.4 kg Ai/ha measured 72 hr after compound treatment under greenhouse conditions (reference value: 12.41 +/- 0.97 ug/g of leaves fresh weight). Type of experiment: functional.

The target of experiment [20] is T1, Glutamine synthetase. The experiment can be described thus: Inhibition of glutamine synthetase in glufosinate-resistant Lolium multiflorum MG (Italian ryegrass) seedlings. The conditions noted are these: read-out: I50.

For `CP(=O)(O)CCC(N)C(=O)O` (stereo not given) [GLUFOSINATE], the Activity in experiment [1] was determined as 332 µg/g; in experiment [3], 353 µg/g; in experiment [5], 256 µg/g; in experiment [6] it was 428 µg/g; in experiment [7] it was 244 µg/g; in experiment [10] it was 187 µg/g. The Activity in experiment [11] was determined as 304 µg/g; in experiment [13], 384 µg/g; in [14], 320 µg/g; in experiment [17], 165 µg/g; in experiment [18], 225 µg/g; in [19], 212 µg/g. The GR50 amounted to 0.15 KgAi/ha in experiment [2], 0.18 KgAi/ha in experiment [9] and 0.45 KgAi/ha in experiment [16]. Besides, the Ratio in [4] and in experiment [12] was 2.8 throughout. Moreover, the IC50 in experiment [8] was 31 µM; in experiment [15] it was 137 µM; in [20] it was 2430 µM.

These data come from ChEMBL document CHEMBL3044806, “Target-site mutation associated with glufosinate resistance in Italian ryegrass (Lolium perenne L. ssp. multiflorum)” (Pest Manag Sci, 2012).
